Reference: patent US20050014811A1, “Substituted benzimidazole compounds and their use for the treatment of cancer” (Aventis Pharma S.A., priority 2001, published 2005)

The molecules below were run against CDK4/CyclinD1 (Homo sapiens, UniProt P11802) (assay: CDK4/CyclinD1 Flashplate assay, 96-well format, biotinylated-Rb peptide substrate). Conditions: not given.
Format: biochemical
Description: This is a CDK4/CyclinD1 kinase assay in a 96-well Streptavidin-coated Flashplate with a biotinylated-Rb peptide substrate.
Each point is tested in duplicate
Biotinylated-Rb: Biotin-[…]
• 1. Prepare substrate: 1 mg/ml solution made fresh in PBS. • 2. Add 100 μg per well to the Flashplate. • 3. Incubate for 2 hours at RT. • 4. From 10 mM inhibitor stocks in DMSO, make 1 mM, 300 μM, 100 μM, 30 μM and 10 μM series of dilution in DMSO. • 5. Wash the Flashplate 3 times with 300 μl PBS to remove unbound peptide substrate. • 6. Add the CDK4/CyclinD1 kinase: 70 ng per well, in a volume of 90 μl in kinase buffer (except for “no enzyme” control wells). • 7. Add 1 μl^1 per well of inhibitor to test 10 μM, 3 μM, 1 μM, 0.3 μM and 0.1 μM in final concentration per 100 μl in each well. • 8. Shake gently the Flashplate 1 minute. • 9. Incubate 30 minutes on wet ice. • 10. Initiate the reaction with 10 μl kinase buffer containing 1 μM final cold ATP and 1 μCi final ^33P-ATP per well. • 11. Shake gently the Flashplate 1 minute. • 12. Incubate 45 minutes at RT (no shaking). • 13. Wash the Flashplate 3 times with 300 μl PBS • 14. Count to detect the incorporation of ^33P-ATP by the kinase to the Rb phosphorylation site.

Sequence of CDK4/CyclinD1 (P11802 whole entry, species assumed): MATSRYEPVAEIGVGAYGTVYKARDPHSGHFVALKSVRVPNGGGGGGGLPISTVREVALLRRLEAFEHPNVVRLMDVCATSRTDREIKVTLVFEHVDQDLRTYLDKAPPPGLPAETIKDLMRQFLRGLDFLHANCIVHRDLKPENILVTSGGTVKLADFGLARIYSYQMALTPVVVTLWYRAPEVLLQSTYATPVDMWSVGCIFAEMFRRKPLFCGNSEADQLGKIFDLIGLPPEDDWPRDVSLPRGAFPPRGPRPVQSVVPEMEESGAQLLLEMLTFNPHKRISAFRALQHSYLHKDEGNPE
Sequence of CDK4/CyclinD1 (P24385 whole entry partner, species assumed): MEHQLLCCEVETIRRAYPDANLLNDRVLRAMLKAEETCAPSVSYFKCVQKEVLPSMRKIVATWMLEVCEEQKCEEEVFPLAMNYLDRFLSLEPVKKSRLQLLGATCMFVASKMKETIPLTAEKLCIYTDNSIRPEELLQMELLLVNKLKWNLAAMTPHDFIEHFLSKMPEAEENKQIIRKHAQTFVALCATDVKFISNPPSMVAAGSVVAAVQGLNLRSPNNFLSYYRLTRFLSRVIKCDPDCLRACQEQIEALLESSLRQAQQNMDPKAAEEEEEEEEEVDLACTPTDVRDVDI

| IC50 [µM] | inhibition at 10 µM [%] | Molecule |
| --- | --- | --- |
| 1.6 |  | COC(=O)Nc1nc2cc(OS(=O)(=O)c3cc(F)ccc3C)ccc2[nH]1 [Example 62-q, 5-Fluoro-2-methyl-benzenesulfonic acid 2-methoxycarbonylamino-1H-benzoimidazol-5-yl ester] |
| 2.2 |  | O=C(Nc1nc2cc(OS(=O)(=O)c3ccc(NCCCN4CCCC4=O)cc3)ccc2[nH]1)C1CC1 [Example 60-ae, 4-[3-(2-Oxo-pyrrolidin-1-yl)-propylamino]-benzenesulfonic acid 2-(cyclopropanecarbonyl-amino)-1H-benzoimidazol-5-yl ester] |
| 1.3 |  | COC(=O)Nc1nc2cc(OS(=O)(=O)c3ccccc3F)ccc2[nH]1 [Example 62-d, 2-Fluoro-benzenesulfonic acid 2-methoxycarbonylamino-1H-benzoimidazol-5-yl ester] |
|  | 92 | O=C(NCCN1CCOCC1)Nc1nc2ccc(OS(=O)(=O)c3ccc(NCc4ccccn4)cc3)cc2[nH]1 [Example 82-h, 4-[(Pyridin-2-ylmethyl)-amino]-benzene sulfonic acid 2-[3-(2-morpholin-4-yl-ethyl)-ureido]-3H-benzimidazol-5-yl ester] |
| 0.6 |  | O=C(NCCCn1ccnc1)Nc1nc2cc(OS(=O)(=O)c3ccc(NC4CCCC4)cc3)ccc2[nH]1 [Example 58-p, 4-Cyclopentylamino-benzenesulfonic acid 2-[3-(3-imidazol-1-yl-propyl)-ureido]-1H-benzoimidazol-5-yl ester] |
|  | 100 | O=C(NCCF)Nc1nc2ccc(OS(=O)(=O)c3ccc(NCCF)cc3)cc2[nH]1 [Example 80-c, 4-(2-Fluoro-ethylamino)-benzenesulfonic acid 2-[3-(2-fluoro-ethyl)-ureido]-3H-benzoimidazol-5-yl ester] |
| 0.5 |  | O=C(Nc1nc2cc(OS(=O)(=O)c3ccc(NCc4cccnc4)cc3)ccc2[nH]1)C1CC1 [Example 60-m, 4-[(Pyridin-3-yl-methyl)-amino]-benzenesulfonic acid 2-(cyclopropanecarbonyl-amino)-1H-benzoimidazol-5-yl ester] |
| 1.2 |  | COC(=O)Nc1nc2cc(OS(=O)(=O)c3cccc(C(F)(F)F)c3)ccc2[nH]1 [Example 62-m, 3-Trifluoromethyl-benzenesulfonic acid 2-methoxycarbonylamino-1H-benzoimidazol-5-yl ester] |
|  | 97 | CC(CO)Nc1ccc(S(=O)(=O)Oc2ccc3[nH]c(NC(=O)NCCN4CCOCC4)nc3c2)cc1 (stereo not drawn) [Example 78-i, 4-(2-Hydroxy-1-methyl-ethylamino)-benzenesulfonic acid 2-[3-(2-morpholin-4-yl-ethyl)-ureido]-1H-benzoimidazol-5-yl ester] |
| 1.6 |  | O=C(Nc1nc2cc(OS(=O)(=O)c3ccc(NCCOCCO)cc3)ccc2[nH]1)C1CC1 [Example 60-ai, 4-[2-(2-Hydroxy-ethoxy)-ethylamino]-benzenesulfonic acid 2-(cyclopropanecarbonyl-amino)-1H-benzoimidazol-5-yl ester] |
| 0.4 |  | CC(C)(CO)CNc1ccc(S(=O)(=O)Oc2ccc3[nH]c(NC(=O)C4CC4)nc3c2)cc1 [Example 60-l, 4-(3-Hydroxy-2,2-dimethyl-propylamino)-benzenesulfonic acid 2-(cyclopropanecarbonyl-amino)-1H-benzoimidazol-5-yl ester] |
| 4 |  | NC(=O)C1CCCCC1Nc1ccc(S(=O)(=O)Oc2ccc3[nH]c(NC(=O)C4CC4)nc3c2)cc1 (stereo not drawn) [Example 60-ab, 4-(2-Carbamoyl-cyclohexylamino)-benzenesulfonic acid 2-(cyclopropanecarbonyl-amino)-1H-benzoimidazol-5-yl ester] |
|  | 46 | COCCNC(=O)Nc1nc2cc(OS(=O)(=O)c3ccc(NCC4CCNCC4)cc3)ccc2[nH]1 [Example 78-v, 4-[(Piperidin-4-ylmethyl)-amino]-benzenesulfonic acid 2-[3-(2-methoxy-ethyl)-ureido]-1H-benzoimidazol-5-yl ester] |
| 0.1 |  | COCCNc1ccc(S(=O)(=O)Oc2ccc3[nH]c(NC(=O)NCc4ccccn4)nc3c2)cc1 [Example 78-f] |
| 0.5 |  | O=C(Nc1nc2cc(OS(=O)(=O)c3ccc(NCCNc4ccccc4)cc3)ccc2[nH]1)C1CC1 [Example 60-w, 4-(2-Phenylamino-ethylamino)-benzenesulfonic acid 2-(cyclopropanecarbonyl-amino)-1H-benzoimidazol-5-yl ester] |
| 0.8 |  | 4-Benzylamino-benzenesulfonic acid 2-(cyclopropanecarbonyl-amino)-1H-benzoimidazol-5-yl ester [Example 60-a] |

| IC50 [µM] | inhibition at 10 µM [%] | Molecule |
| --- | --- | --- |
| 1.75 |  | COC(=O)Nc1nc2cc(OS(=O)(=O)c3ccc(C#N)cc3)ccc2[nH]1 [Example 62-s, 4-Cyano-benzenesulfonic acid 2-methoxycarbonylamino-1H-benzoimidazol-5-yl ester] |
| 1.18 |  | O=S(=O)(Oc1ccc2[nH]c(Nc3ccccc3)nc2c1)c1ccc(NC2CCCC2)cc1 [Example 70-a, 4-Cyclopentylamino-benzenesulfonic acid 2-phenylamino-1H-benzoimidazol-5-yl ester] |
|  | 78 | COC(=O)Nc1nc2cc(OS(=O)(=O)c3ccc(NC(C)CO)cc3)ccc2[nH]1 (stereo not drawn) [Example 68-b, 4-(2-hydroxy-1-methyl-ethylamino)-benzenesulfonic acid 2-methoxycarbonylamino-1H-benzoimidazol-5-yl ester] |
|  | 14 | CCCCNc1ccc(S(=O)(=O)Oc2ccc3[nH]c(NC(=O)OC)nc3c2)cc1 [Example 12, Methyl-5-(4-butylaminophenylsulfonyloxy) benzimidazole-2-carbamate] |
| 1.1 |  | COC(=O)Nc1nc2cc(OS(=O)(=O)c3ccc(NC(C)CO)cc3)ccc2[nH]1 (stereo not drawn) [Example 8, Methyl-5-(4-[1-methyl,2-hydroxyethyl]aminophenyl-sulfonyloxy) benzimidazole-2-carbamate] |
| 2 |  | COC(=O)Nc1nc2cc(OS(=O)(=O)c3ccc(NCC(C)O)cc3)ccc2[nH]1 (stereo not drawn) [Example 9, Methyl-5-(4-[2-methyl,2-hydroxyethyl]aminophenyl-sulfonyloxy) benzimidazole-2-carbamate] |
| 0.55 |  | O=C(Nc1nc2cc(OS(=O)(=O)c3ccc(NC4CCC4)cc3)ccc2[nH]1)C1CC1 [Example 60-ah, 4-Cyclobutylamino-benzenesulfonic acid 2-(cyclopropanecarbonyl-amino)-1H-benzoimidazol-5-yl ester] |
|  | 103 | COCC(O)CNC(=O)Nc1nc2ccc(OS(=O)(=O)c3ccc(NCC(O)COC)cc3)cc2[nH]1 (stereo not drawn) [Example 80-m, 4-(2-Hydroxy-3-methoxy-propylamino)-benzenesulfonic acid 2-[3-(2-hydroxy-3-methoxy-propyl)-ureido]-3H-benzoimidazol-5-yl ester] |
| 2.5 |  | COC(=O)Nc1nc2cc(OS(=O)(=O)c3cccc(F)c3)ccc2[nH]1 [Example 62-r, 3-Fluoro-benzenesulfonic acid 2-methoxycarbonylamino-1H-benzoimidazol-5-yl ester] |
| 1.5 |  | O=C(Nc1nc2cc(OS(=O)(=O)c3ccc(NCCN4CCCC4)cc3)ccc2[nH]1)C1CC1 [Example 60-g, 4-(2-Pyrrolidin-1-yl-ethylamino)-benzenesulfonic acid 2-(cyclopropanecarbonyl-amino)-1H-benzoimidazol-5-yl ester] |
| 3.05 |  | CCN(CC)CCCNC(=O)COc1ccc(S(=O)(=O)Oc2ccc3[nH]c(NC(=O)OC)nc3c2)cc1 [Example 66-b, 4-[(3-diethylamino-propylcarbamoyl)-methoxy]-benzenesulfonic acid 2-methoxycarbonylamino-1H-benzoimidazol-5-yl ester] |
| 1.3 |  | NCCNCCNc1ccc(S(=O)(=O)Oc2ccc3[nH]c(NC(=O)C4CC4)nc3c2)cc1 [Example 60-ad, 4-[2-(2-Amino-ethylamino)-ethylamino]-benzenesulfonic acid 2-(cyclopropanecarbonyl-amino)-1H-benzoimidazol-5-yl ester] |
|  | 50 | COC(=O)Nc1nc2cc(OS(=O)(=O)c3c(C)noc3C)ccc2[nH]1 [Example 62-a, 3,5-Dimethyl-isoxazole-4-sulfonic acid 2-methoxycarbonylamino-1H-benzoimidazol-5-yl ester] |
| 2.06 |  | COC(=O)Nc1nc2ccc(OS(=O)(=O)c3ccc(OC(F)(F)F)cc3)cc2[nH]1 [Example 61] |
| 0.3 |  | CC(CO)Nc1ccc(S(=O)(=O)Oc2ccc3[nH]c(NC(=O)C4CC4)nc3c2)cc1 (stereo not drawn) [Example 60-i, 4-(2-Hydroxy-1-methyl-ethylamino)-benzenesulfonic acid 2-(cyclopropanecarbonyl-amino)-1H-benzoimidazol-5-yl ester] |

| Molecule | IC50 [µM] | inhibition at 10 µM [%] |
| --- | --- | --- |
| COC(=O)Nc1nc2cc(OS(=O)(=O)c3ccc(OCC(=O)N4CCN(C)CC4)cc3)ccc2[nH]1 [Example 66-a, 4-[2-(4-Methyl-piperazin-1-yl)-2-oxo-ethoxy]-benzenesulfonic acid 2-methoxycarbonylamino-1H-benzoimidazol-5-yl ester] |  | 19 |

Same assay, conditions: at 10 μM

| inhibition of CDK4/cyclinD1 at 10 μM [% inhibition at 10 μM] | Molecule |
| --- | --- |
| 54 | O=C(NCc1ccccn1)Nc1nc2cc(OS(=O)(=O)c3ccc(OCc4ccccc4)cc3)ccc2[nH]1 [Example 78-n] |
